Here are results for eight molecules from article PMC10753746 (ACS Omega, 2023).

Test [1] has as its target T1, LPA4 (Homo sapiens, UniProt Q99677).
Another test deals with LPA2 (Homo sapiens, UniProt Q9HBW0). Nature of the test: TGFα shedding assay, LPA2. In kind it is cell-based. The settings on record: for EC50: EC50, HEK293 cells, human LPA2 + AP-TGFα + Gαq/s, 1 h 37°C; for <RIA>: relative to 18:1-LPA (1) = 1 of the same table.
In test [2] the target is T1, LPA4. Nature of the test: cell-based.
A further test concerns the target LPA1 (Homo sapiens, UniProt Q92633).
Another test concerns the target LPA5 (Homo sapiens, UniProt Q9H1C0).

For orientation: Emax means the size of the effect at its maximum, as opposed to the concentration needed. Broadly, the EC50 is the concentration giving half of the maximal effect.

T1 sequence (Q99677 whole entry): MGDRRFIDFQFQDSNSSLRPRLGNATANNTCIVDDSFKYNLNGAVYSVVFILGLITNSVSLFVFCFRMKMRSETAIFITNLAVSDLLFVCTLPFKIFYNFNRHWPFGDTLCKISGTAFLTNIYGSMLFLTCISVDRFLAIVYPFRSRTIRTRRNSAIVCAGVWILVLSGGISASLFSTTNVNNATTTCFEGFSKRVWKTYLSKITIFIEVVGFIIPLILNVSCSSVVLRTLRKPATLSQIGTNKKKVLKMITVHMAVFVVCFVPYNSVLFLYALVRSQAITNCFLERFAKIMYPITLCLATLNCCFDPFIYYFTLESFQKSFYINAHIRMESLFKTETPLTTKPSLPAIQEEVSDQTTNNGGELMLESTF
Chain of LPA2 (Q9HBW0 whole entry): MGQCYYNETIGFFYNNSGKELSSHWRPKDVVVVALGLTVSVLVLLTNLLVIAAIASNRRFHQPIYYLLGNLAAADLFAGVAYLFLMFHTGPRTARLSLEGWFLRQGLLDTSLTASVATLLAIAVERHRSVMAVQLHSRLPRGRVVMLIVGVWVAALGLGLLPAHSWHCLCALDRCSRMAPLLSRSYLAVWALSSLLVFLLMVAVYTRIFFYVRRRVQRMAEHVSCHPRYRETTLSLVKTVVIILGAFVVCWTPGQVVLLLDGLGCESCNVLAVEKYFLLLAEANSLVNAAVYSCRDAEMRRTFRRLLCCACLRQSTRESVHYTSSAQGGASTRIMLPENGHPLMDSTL
Chain of LPA5 (Q9H1C0 whole entry): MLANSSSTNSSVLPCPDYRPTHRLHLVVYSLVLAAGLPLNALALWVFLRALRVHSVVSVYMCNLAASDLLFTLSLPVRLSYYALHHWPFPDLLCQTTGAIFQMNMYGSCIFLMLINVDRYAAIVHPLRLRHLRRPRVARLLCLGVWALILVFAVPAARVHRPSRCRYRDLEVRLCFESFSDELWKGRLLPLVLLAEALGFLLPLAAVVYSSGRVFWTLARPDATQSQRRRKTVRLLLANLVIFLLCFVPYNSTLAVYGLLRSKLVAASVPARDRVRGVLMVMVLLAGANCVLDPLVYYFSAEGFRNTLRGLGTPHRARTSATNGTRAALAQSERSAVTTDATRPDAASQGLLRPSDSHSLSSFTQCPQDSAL
Chain of LPA1 (Q92633 whole entry): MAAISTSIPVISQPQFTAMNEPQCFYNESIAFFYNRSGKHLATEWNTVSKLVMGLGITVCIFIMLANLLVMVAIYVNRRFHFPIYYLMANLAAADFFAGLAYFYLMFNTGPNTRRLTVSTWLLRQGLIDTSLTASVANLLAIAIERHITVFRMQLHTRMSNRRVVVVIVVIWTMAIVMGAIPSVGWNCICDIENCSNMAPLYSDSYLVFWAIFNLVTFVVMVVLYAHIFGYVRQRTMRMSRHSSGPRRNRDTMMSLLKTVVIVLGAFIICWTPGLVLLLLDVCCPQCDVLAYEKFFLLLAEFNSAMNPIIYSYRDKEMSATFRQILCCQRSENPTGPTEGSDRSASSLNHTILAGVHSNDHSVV

Take `CCCCCCCCCCCCCCCCO[C@@H]1CCCO[C@H]1COP(O)(O)=S` [MZN-018]: on LPA4 [1], the maximal response (Emax) amounted to 6.4%. Further, at LPA2, the Emax came to 16% and the EC50 was determined as 1000 nM. Further, the “<RIA>” value at LPA2 (LPA2) is reported as <0.012>.

For `CCCCCCCC/C=C\CCCCCCCC(=O)N1CCC[C@H]1COP(O)(O)=S` [MZN-019], the Emax at LPA4 [1] was 16%; at LPA2 it was 42%. Also, the EC50 on LPA4 [2] stood at 8.32 nM; on LPA2, 1600 nM. Further, the “<RIA>” value at LPA2 (LPA2) is recorded as <0.022>.

For the molecule `CCCCCCCCCCCCCCCC(=O)N1CCC[C@H]1COP(O)(O)=S` [MZN-020], the Emax at LPA4 [1] stood at 19%; on LPA2 it was 44%. The EC50 at LPA2 worked out at 630 nM.

As for `CCCCCCCCCCCCCCCC(=O)O[C@@H]1CCCO[C@H]1COP(O)(O)=S` [MZN-021], on LPA4 [1], the Emax was 21%. The “agonistic activity in words” value on LPA2 (LPA2) is reported as “no activity”.

For `CCCCCCCC/C=C/CCCCCCCC(=O)O[C@@H]1CCCO[C@H]1COP(O)(O)=S` [MZN-022], the Emax at LPA1 was 16%; on LPA4 [1] it was 23%; at LPA5, 51%.

`CCCCCCc1ccccc1CCCCCCC(=O)O[C@@H]1CCCO[C@H]1COP(O)(O)=S` [MZN-023]: the Emax on LPA4 [1] amounted to 18%.

For `CCCCCCc1cccc(CCCCCCC(=O)O[C@@H]2CCCO[C@H]2COP(O)(O)=S)c1` [MZN-024], the Emax on LPA4 [1] worked out at 22%.

On to `CCCCCCc1ccc(CCCCCCC(=O)O[C@@H]2CCCO[C@H]2COP(O)(O)=S)cc1` [MZN-025], for which the Emax on LPA4 [1] came out at 23%.
